Among the data in PubChem BioAssay AID328 (DTP/NCI, 2004) are T/C values, retold here.

For the test, the system named is BDF1 mice, P388 leukemia ip, median survival T/C. Nature of the test: NCI In Vivo Anticancer Drug Screen. Data for tumor model P388 Leukemia (intraperitoneal) in B6D2F1 (BDF1) mice. Conditions: endpoint: median survival time, higher = longer survival. The method, boiled down: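 Transplantable tumour in mice; compound vs vehicle dosing; survival scored; ratio of treated to control reported.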

The mark [1] stands for this setting: dose: 100.0 mg/kg/injection, schedule: Q04DX003 (ip), vehicle: saline with Tween-80.
The mark [2] stands for this setting: dose: 200.0 mg/kg/injection, schedule: Q04DX003 (ip), vehicle: saline with Tween-80.
Where [3] appears, read: dose: 400.0 mg/kg/injection, schedule: Q04DX003 (ip), vehicle: saline with Tween-80.
[4] abbreviates: dose: 100.0 mg/kg/injection, schedule: Q01DX009 (ip), vehicle: saline.

SMILES strings stand for the structures. “And” between values parts separate entries of the source, which are not always exact repeats. Equal entries are not always repeated. Inconclusive results and toxic doses are left out.

Regarding `C=CCN1/C(=C/C=C\c2sc3ccccc3[n+]2CC=C)Sc2ccccc21`, the T/C runs as follows: (dose: 0.12 mg/kg/injection, schedule: Q01DX009 (ip), vehicle: saline) 100 % of control; (dose: 0.25 mg/kg/injection, schedule: Q04DX003 (ip), vehicle: Klucel (hydroxypropylcellulose) (HPC)) 175 % of control; (dose: 0.5 mg/kg/injection, schedule: Q04DX003 (ip), vehicle: Klucel (hydroxypropylcellulose) (HPC)) 115 % of control; (dose: 1.0 mg/kg/injection, schedule: Q01DX009 (ip), vehicle: saline) 154 % of control; (dose: 1.0 mg/kg/injection, schedule: Q01DX010 (ip), vehicle: saline) 123 % of control; (dose: 1.0 mg/kg/injection, schedule: Q04DX003 (ip), vehicle: Klucel (hydroxypropylcellulose) (HPC)) 110 % of control. The T/C runs as follows: (dose: 63.0 micrograms/kg/injection, schedule: Q01DX010 (ip), vehicle: saline) 90 % of control; (dose: 125.0 micrograms/kg/injection, schedule: Q01DX010 (ip), vehicle: saline) 90 % of control; (dose: 250.0 micrograms/kg/injection, schedule: Q01DX010 (ip), vehicle: saline) 90 % of control.
For `C1=C(c2ccccc2)C(c2ccccc2)C(c2ccccc2)C/C1=N/OCCN1CCCC1` (configuration not stated), the T/C (dose: 6.0 mg/kg/injection, schedule: Q01DX009 (ip), vehicle: saline with Tween-80) is 108 % of control; the T/C (dose: 6.0 mg/kg/injection, schedule: Q04DX003 (ip), vehicle: saline with Tween-80) was 118 % of control; the T/C (dose: 8.0 mg/kg/injection, schedule: Q01DX009 (ip), vehicle: saline with Tween-80) was 100 % of control; the T/C (dose: 12.0 mg/kg/injection, schedule: Q01DX009 (ip), vehicle: saline with Tween-80) was 115 % of control; the T/C (dose: 18.0 mg/kg/injection, schedule: Q01DX009 (ip), vehicle: saline with Tween-80) is 107 % of control; the T/C (dose: 25.0 mg/kg/injection, schedule: Q04DX003 (ip), vehicle: saline with Tween-80) was 100 % of control.
For `CC(C)CCc1cc(O)c(CCC(C)C)cc1O`, the T/C by setting is: (dose: 0.78 mg/kg/injection, schedule: Q01DX009 (ip), vehicle: saline with Tween-80) 101 % of control; (dose: 1.56 mg/kg/injection, schedule: Q01DX009 (ip), vehicle: saline with Tween-80) 102 % of control; (dose: 3.12 mg/kg/injection, schedule: Q01DX009 (ip), vehicle: saline with Tween-80) 102 % of control; (dose: 6.25 mg/kg/injection, schedule: Q01DX009 (ip), vehicle: saline with Tween-80) 104 % of control.
Regarding `Cc1ccccc1N1C(=O)CSC1=S`, the T/C under setting [1] is 100 % of control; the T/C (dose: 132.0 mg/kg/injection, schedule: Q04DX003 (ip), vehicle: saline with Tween-80) is 90 % of control; the T/C under setting [2] was 100 % of control; the T/C (dose: 300.0 mg/kg/injection, schedule: Q04DX003 (ip), vehicle: saline with Tween-80) is 100 % of control; the T/C under setting [3] was 90 % of control.
`COC(OC)c1[nH]c(=S)[nH]c(=O)c1Cc1c(Cl)cccc1Cl`: the T/C is 104 % of control under setting [1], 104 % of control under setting [2] and 100 % of control under setting [3].
On to `CCC(=O)O[C@H]1CC[C@H]2[C@@H]3[C@H](C)CC4=CC(=O)CC[C@]4(C)[C@H]3CC[C@]12C`, for which the T/C is, setting by setting: under setting [4], 95 % of control; (dose: 200.0 mg/kg/injection, schedule: Q01DX009 (ip), vehicle: saline) 100 % of control; (dose: 400.0 mg/kg/injection, schedule: Q01DX009 (ip), vehicle: saline) 115 % of control.
In the case of `CCOP1(=S)OCC(C)O1` (configuration not stated), the T/C was 105 % of control (dose: 100.0 mg/kg/injection, schedule: Q04DX002 (ip), vehicle: saline with Tween-80); 99 % of control (dose: 200.0 mg/kg/injection, schedule: Q04DX002 (ip), vehicle: saline with Tween-80); 105 % of control (dose: 400.0 mg/kg/injection, schedule: Q04DX002 (ip), vehicle: saline with Tween-80).
`Clc1ccc(C(c2ccc(Cl)cc2)C(Cl)(Cl)Cl)cc1`: the T/C is, setting by setting: (dose: 12.5 mg/kg/injection, schedule: Q01DX009 (ip), vehicle: saline with Tween-80) 102 % of control; (dose: 25.0 mg/kg/injection, schedule: Q01DX009 (ip), vehicle: saline with Tween-80) 102 % of control; (dose: 50.0 mg/kg/injection, schedule: Q01DX009 (ip), vehicle: saline with Tween-80) 88 % of control.
For `CN1CCN(CCCN2c3ccccc3Sc3ccc(C(F)(F)F)cc32)CC1`, the T/C reads like this: (dose: 6.25 mg/kg/injection, schedule: Q01DX009 (ip), vehicle: saline) 109 % of control; (dose: 9.37 mg/kg/injection, schedule: Q01DX009 (ip), vehicle: saline) 118 % of control; (dose: 9.37 mg/kg/injection, schedule: Q04DX003 (ip), vehicle: saline with Tween-80) 117 % of control; (dose: 12.5 mg/kg/injection, schedule: Q01DX009 (ip), vehicle: saline) 109 % of control and 118 % of control; (dose: 18.75 mg/kg/injection, schedule: Q04DX003 (ip), vehicle: saline with Tween-80) 121 % of control; (dose: 44.0 mg/kg/injection, schedule: Q01DX009 (ip), vehicle: saline with Tween-80) 107 % of control. For the same molecule, the T/C was 113 % of control (dose: 50.0 mg/kg/injection, schedule: Q04DX003 (ip), vehicle: saline with Tween-80); 115 % of control (dose: 75.0 mg/kg/injection, schedule: Q04DX003 (ip), vehicle: saline); 150 % of control and 163 % of control under setting [1].
With `Cc1nnc(NC(=O)CCl)s1`, the T/C is, setting by setting: (dose: 25.0 mg/kg/injection, schedule: Q01DX009 (ip), vehicle: saline) 95 % of control and 100 % of control and 113 % of control; (dose: 35.0 mg/kg/injection, schedule: Q01DX009 (ip), vehicle: saline) 113 % of control; (dose: 50.0 mg/kg/injection, schedule: Q01DX009 (ip), vehicle: saline) 100 % of control; (dose: 100.0 mg/kg/injection, schedule: Q01DX009 (ip), vehicle: Klucel (hydroxypropylcellulose) (HPC)) 106 % of control; under setting [4], 100 % of control and 105 % of control; (dose: 200.0 mg/kg/injection, schedule: Q01DX009 (ip), vehicle: Klucel (hydroxypropylcellulose) (HPC)) 111 % of control.
On to `CCCCCOc1cc(C(C)=O)cc(OC)c1OC(=O)c1cc([N+](=O)[O-])cc([N+](=O)[O-])c1`, for which the T/C reads like this: (dose: 100.0 mg/kg/injection, schedule: Q01DX001 (ip), vehicle: saline with Tween-80) 100 % of control; (dose: 200.0 mg/kg/injection, schedule: Q01DX001 (ip), vehicle: saline with Tween-80) 90 % of control; (dose: 400.0 mg/kg/injection, schedule: Q01DX001 (ip), vehicle: saline with Tween-80) 90 % of control.
Regarding `Oc1ccc2ccccc2c1Cc1c(O)ccc2ccccc12`, the T/C was 95 % of control (dose: 50.0 mg/kg/injection, schedule: Q04DX003 (ip), vehicle: other); 95 % of control (dose: 100.0 mg/kg/injection, schedule: Q04DX003 (ip), vehicle: other); 104 % of control (dose: 200.0 mg/kg/injection, schedule: Q04DX003 (ip), vehicle: other).
For `Cc1cc(NCCN(C(C)C)C(C)C)nc(/N=C(\N)Nc2ccc(Cl)c(C(F)(F)F)c2)n1`, the T/C is 104 % of control (dose: 3.8 mg/kg/injection, schedule: Q04DX003 (ip), vehicle: Klucel (hydroxypropylcellulose) (HPC)); 95 % of control (dose: 4.68 mg/kg/injection, schedule: Q01DX009 (ip), vehicle: Klucel (hydroxypropylcellulose) (HPC)); 95 % of control (dose: 5.8 mg/kg/injection, schedule: Q04DX003 (ip), vehicle: Klucel (hydroxypropylcellulose) (HPC)); 100 % of control (dose: 9.37 mg/kg/injection, schedule: Q01DX009 (ip), vehicle: Klucel (hydroxypropylcellulose) (HPC)); 104 % of control (dose: 18.75 mg/kg/injection, schedule: Q01DX009 (ip), vehicle: Klucel (hydroxypropylcellulose) (HPC)); 116 % of control (dose: 20.0 mg/kg/injection, schedule: Q04DX003 (ip), vehicle: Klucel (hydroxypropylcellulose) (HPC)). Also, the T/C (dose: 26.0 mg/kg/injection, schedule: Q01DX009 (ip), vehicle: Klucel (hydroxypropylcellulose) (HPC)) was 95 % of control; the T/C (dose: 26.0 mg/kg/injection, schedule: Q04DX003 (ip), vehicle: Klucel (hydroxypropylcellulose) (HPC)) is 106 % of control; the T/C (dose: 40.0 mg/kg/injection, schedule: Q04DX003 (ip), vehicle: Klucel (hydroxypropylcellulose) (HPC)) was 106 % of control and 116 % of control; the T/C (dose: 60.0 mg/kg/injection, schedule: Q04DX003 (ip), vehicle: Klucel (hydroxypropylcellulose) (HPC)) is 123 % of control.
`COc1c(Br)cc(/C=C(/C)[N+](=O)[O-])cc1Br`: the T/C reads like this: under setting [1], 114 % of control; under setting [2], 160 % of control.
In the case of `O=C1CCC(=O)N1CC(O)COc1ccc(Cl)cc1` (configuration not stated), the T/C is 100 % of control under setting [1], 95 % of control under setting [2] and 100 % of control under setting [3].
